Measured values: patent US20060058358A1, “Pharmaceutical compositions for the treatment of hyper-proliferative disorders” (priority 2004, published 2006)

Columns and labels:
VEGFR-2 = VEGFR-2 (Homo sapiens, UniProt P35968); assay: Inhibition of VEGFR-2 kinase; format: biochemical; settings: statement in words, no data
[1] = Solubility of the active in the dissolution medium; format: physicochemical; settings: acetate buffer pH 4.5 USP + 0.1% sodium lauryl sulfate, 37°C
Procedure: Drug dissolution of the new solid dispersion formulations of Example 6 and 7 was studied using the paddle apparatus “Apparatus 2” of the USP 28-NF 23 (The United States Pharmacopoeia USP 28 2005) at a temperature of 37±0.5° C. and a paddle speed of 75 rpm. 900 mL of acetate buffer pH 4.5 USP with the addition of 0.1% (m/V) sodium lauryl sulfate as surfactant was used as dissolution medium. An amount of solid dispersion equivalent to 50 mg of the compound of Formula I as base was inserted in each vessel. During the dissolution test samples were drawn through a filter and the dissolved amount of drug substances was determined by UV spectrometry. The determined amount of active was calculated as % (m/m) of total dose (50mg).
Due to the low solubility of the active only about […] of the 50 mg dose are dissolved. The solid dispersions, however, show fast and almost complete dissolution of the active. […] The solid new pharmaceutical compositions of Example 6 and 7, which contain the active in substantially amorphous form, show clear supersaturation compared to the physical mixture of the active and PVP, and no significant recrystallisation is observed for at least 1 hour. […]

p38 = assay: Inhibition of p38 kinase; format: biochemical; settings: statement in words, no data
[2] = Comparative oral bioavailability in the rat (Example 19); format: in vivo, male Wistar rats; settings: male, Wistar, plasma, 5 mg/kg, oral gavage; for bioavailability: relative to iv bolus 2 mg/kg
Procedure: A single dose of the compounds of Examples 1, 2, 3, 4, and 5 was administered to each of three fasted male Wistar rats (220-250 g; 6-8 weeks old) orally. Compounds of Examples 1-4 were administered by oral gavage in the formulation described in Table 1. The solid dispersion of Example 5 (1.25 mg drug substance in 5 mg PVP-25) was administered in size 9 capsules. One capsule was administered per rat. Approximately 0.4 mL of whole blood was collected via an indwelling jugular catheter at: 0.25, 0.5, 1, 2, 4, 7, 24, and 48 h post-dose. The blood samples were centrifuged (approx. 5 min.) in order to obtain plasma which was then transferred to the appropriately labeled vials and stored frozen (−20° C.) until analysis for parent drug.
Plasma samples were analyzed via LC/MS/MS for parent drug concentrations and pharmacokinetic parameters were calculated using Watson LIMS.
The dose of 5 mg/kg of the pharmaceutical composition of Example 5 means 5 mg of drug substance (compound of Example 1) per kg of body weight. The relative bioavailabilities in the rat are calculated from the data of an intravenous bolus dose of 2 mg/kg in the same strain of rats, using a solution of the active in a Cremophor RH40:ethanol:water (12.5:12.5:75) vehicle. The plasma exposure in the exposure arm of the suspension in 0.5% tylose solution (9.9% F) reflects a crystalline, micronized drug substance with the following characteristics: 208° C. (onset), 211° C. (peak), ΔH=91.4 J/g.

PDGFR = assay: Inhibition of PDGFR kinase; format: biochemical; settings: statement in words, no data
raf = assay: Inhibition of raf kinase; format: biochemical; settings: statement in words, no data
[3] = po, 0.5% NaCMC and 0.5% Tween 80 in water
[4] = po, vehicle 0.5% NaCMC and 0.5% Tween 80 in water

VEGFR-2, sequence (P35968 20-1356, species assumed): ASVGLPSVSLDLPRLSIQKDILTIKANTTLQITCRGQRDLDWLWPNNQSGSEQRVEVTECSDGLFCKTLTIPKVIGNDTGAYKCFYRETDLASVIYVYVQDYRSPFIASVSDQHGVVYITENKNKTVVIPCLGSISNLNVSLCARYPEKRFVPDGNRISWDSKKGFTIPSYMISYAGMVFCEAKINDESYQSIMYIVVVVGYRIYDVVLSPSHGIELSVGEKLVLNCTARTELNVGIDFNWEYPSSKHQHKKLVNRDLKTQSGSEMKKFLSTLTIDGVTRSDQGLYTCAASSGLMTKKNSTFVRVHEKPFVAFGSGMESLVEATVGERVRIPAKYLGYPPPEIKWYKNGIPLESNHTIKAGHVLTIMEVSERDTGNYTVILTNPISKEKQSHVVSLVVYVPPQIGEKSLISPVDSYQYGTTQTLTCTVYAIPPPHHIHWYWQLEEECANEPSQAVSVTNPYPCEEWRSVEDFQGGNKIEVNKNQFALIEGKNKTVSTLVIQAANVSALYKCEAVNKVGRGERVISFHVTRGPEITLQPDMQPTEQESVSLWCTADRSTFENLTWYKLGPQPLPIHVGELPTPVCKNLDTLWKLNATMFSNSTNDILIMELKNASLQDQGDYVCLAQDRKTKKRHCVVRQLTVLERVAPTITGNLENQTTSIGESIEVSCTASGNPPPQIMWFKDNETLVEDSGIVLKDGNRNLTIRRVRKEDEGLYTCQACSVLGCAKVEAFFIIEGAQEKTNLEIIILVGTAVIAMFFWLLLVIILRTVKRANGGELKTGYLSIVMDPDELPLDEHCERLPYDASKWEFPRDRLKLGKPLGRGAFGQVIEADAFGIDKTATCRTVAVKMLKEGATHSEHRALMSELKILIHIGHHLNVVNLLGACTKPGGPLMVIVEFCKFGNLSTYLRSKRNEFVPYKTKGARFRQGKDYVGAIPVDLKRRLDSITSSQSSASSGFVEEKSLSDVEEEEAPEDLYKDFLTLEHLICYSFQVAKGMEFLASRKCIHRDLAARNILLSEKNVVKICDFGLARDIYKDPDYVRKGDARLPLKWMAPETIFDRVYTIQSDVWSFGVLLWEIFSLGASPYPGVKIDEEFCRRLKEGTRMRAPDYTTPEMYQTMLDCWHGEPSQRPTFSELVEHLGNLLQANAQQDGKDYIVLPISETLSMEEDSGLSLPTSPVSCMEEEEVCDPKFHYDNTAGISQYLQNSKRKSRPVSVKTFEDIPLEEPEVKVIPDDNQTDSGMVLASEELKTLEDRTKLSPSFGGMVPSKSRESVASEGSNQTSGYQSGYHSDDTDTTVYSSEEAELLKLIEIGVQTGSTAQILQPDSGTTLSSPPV

| SMILES | inhibition of VEGFR-2 kinase (VEGFR-2) | solubility of the active in this medium [1] | inhibition of p38 kinase (p38) | bioavailability ([2]; oral, 0.5% tylose in water) | bioavailability [2, 3] | bioavailability ([2]; po, 0.5% tylose in water) | AUC(0-inf) [2, 4] | AUC(0-inf) ([2]; po, vehicle 0.5% tylose in water) | inhibition of PDGFR kinase (PDGFR) | inhibition of raf kinase (raf) |
| --- | --- | --- | --- | --- | --- | --- | --- | --- | --- | --- |
| CNC(=O)c1cc(Oc2ccc(NC(=O)Nc3ccc(Cl)c(C(F)(F)F)c3)c(F)c2)ccn1 [Example 1, 4{4-[3-(4-chloro-3-trifluoromethylphenyl)-ureido]-3-fluorophenoxy}-pyridine-2-carboxylic acid methylamide] | potent inhibitor | 2.3 mg/900 mL | potent inhibitor | 9.9% | 13% | 10% | 21800 ng·h/mL | 17000 ng·h/mL | potent inhibitor | potent inhibitor |
| CNC(=O)c1cc(Oc2ccc(NC(=O)Nc3ccc(Cl)c(C(F)(F)F)c3)c(F)c2)ccn1.Cl [Example 2, 4{4-[3-(4-chloro-3-trifluoromethylphenyl)-ureido]-3-fluorophenoxy}-pyridine-2-carboxylic acid methylamide hydrochloride] |  |  |  |  | 7% |  | 12100 ng·h/mL |  |  |  |
| CNC(=O)c1cc(Oc2ccc(NC(=O)Nc3ccc(Cl)c(C(F)(F)F)c3)c(F)c2)ccn1.CS(=O)(=O)O [Example 3, 4{4-[3-(4-chloro-3-trifluoromethylphenyl)-ureido]-3-fluorophenoxy}-pyridine-2-carboxylic acid methylamide mesylate] |  |  |  |  | 10% |  | 16800 ng·h/mL |  |  |  |
| CNC(=O)c1cc(Oc2ccc(NC(=O)Nc3ccc(Cl)c(C(F)(F)F)c3)c(F)c2)ccn1.O=S(=O)(O)c1ccccc1 [Example 4, 4{4-[3-(4-chloro-3-trifluoromethylphenyl)-ureido]-3-fluorophenoxy}-pyridine-2-carboxylic acid methylamide phenylsulfonate] |  |  |  |  | 10% |  | 15800 ng·h/mL |  |  |  |
